The results in this text go back to patent US12162867B2, “Inhibitors of RNA helicase DHX9 and uses thereof” (ACCENT THERAPEUTICS, INC., priority 2022, dated 2024).

Assay [1] concerns circBRIP1 in HCT116 cells. As to the kind of experiment: DHX9 circBRIP1 cellular target engagement TaqMan Multiplex assay (qPCR). It is filed as cell-based. As to conditions: * Taqman assay was used, read-out: DHX9 Cellular Target Engagement EC50. On the technique in general: Quantitative PCR measures a nucleic acid by following its amplification.
Assay [2] relates to LS411N cells. The assay can be described thus: DHX9 cellular proliferation assay (CellTiter-Glo), LS411N (CRC-MSI). Format: cell-based. As to conditions: LS411N, performed at Pharmaron, read-out: LS411N (CRC-MSI-H) Antiproliferative IC50. A general note: In ATP-based viability assays light output follows the ATP content of the culture.
For assay [3], the system named is NCI-H747 cells. The assay can be described thus: DHX9 cellular proliferation assay (CellTiter-Glo), NCI-H747 (CRC-MSS). Format: cell-based. Conditions: performed at Pharmaron, read-out: H747 (CRC-MSS) Antiproliferative IC50.
Assay [4] has as its target T1, Human recombinant DHX9 protein (Homo sapiens, UniProt Q08211).
T1 construct: purchased Viva
As to the kind of experiment: DHX9 ATPase assay (ADP-Glo). It is filed as biochemical. Conditions: for IC50: read-out: DHX9 Biochemical Inflection Point.

For assay [5], the system named is circBRIP1 in HCT116 cells. As to the kind of experiment: DHX9 circBRIP1 cellular target engagement SYBR Green assay (qPCR). Format: cell-based. Conditions: Homo sapiens, HCT-116, circBRIP1, HCT116 cells; SyBr assay (marked ^+); read-out: DHX9 Cellular Target Engagement EC50.
The mark [6] stands for this setting: Homo sapiens, HCT-116, circBRIP1, HCT116 cells.
Where [7] appears, read: Homo sapiens, NCI-H747, NCI-H747.

Where two headings read alike, the source gives them in different places.

T1 sequence (Q08211 whole entry): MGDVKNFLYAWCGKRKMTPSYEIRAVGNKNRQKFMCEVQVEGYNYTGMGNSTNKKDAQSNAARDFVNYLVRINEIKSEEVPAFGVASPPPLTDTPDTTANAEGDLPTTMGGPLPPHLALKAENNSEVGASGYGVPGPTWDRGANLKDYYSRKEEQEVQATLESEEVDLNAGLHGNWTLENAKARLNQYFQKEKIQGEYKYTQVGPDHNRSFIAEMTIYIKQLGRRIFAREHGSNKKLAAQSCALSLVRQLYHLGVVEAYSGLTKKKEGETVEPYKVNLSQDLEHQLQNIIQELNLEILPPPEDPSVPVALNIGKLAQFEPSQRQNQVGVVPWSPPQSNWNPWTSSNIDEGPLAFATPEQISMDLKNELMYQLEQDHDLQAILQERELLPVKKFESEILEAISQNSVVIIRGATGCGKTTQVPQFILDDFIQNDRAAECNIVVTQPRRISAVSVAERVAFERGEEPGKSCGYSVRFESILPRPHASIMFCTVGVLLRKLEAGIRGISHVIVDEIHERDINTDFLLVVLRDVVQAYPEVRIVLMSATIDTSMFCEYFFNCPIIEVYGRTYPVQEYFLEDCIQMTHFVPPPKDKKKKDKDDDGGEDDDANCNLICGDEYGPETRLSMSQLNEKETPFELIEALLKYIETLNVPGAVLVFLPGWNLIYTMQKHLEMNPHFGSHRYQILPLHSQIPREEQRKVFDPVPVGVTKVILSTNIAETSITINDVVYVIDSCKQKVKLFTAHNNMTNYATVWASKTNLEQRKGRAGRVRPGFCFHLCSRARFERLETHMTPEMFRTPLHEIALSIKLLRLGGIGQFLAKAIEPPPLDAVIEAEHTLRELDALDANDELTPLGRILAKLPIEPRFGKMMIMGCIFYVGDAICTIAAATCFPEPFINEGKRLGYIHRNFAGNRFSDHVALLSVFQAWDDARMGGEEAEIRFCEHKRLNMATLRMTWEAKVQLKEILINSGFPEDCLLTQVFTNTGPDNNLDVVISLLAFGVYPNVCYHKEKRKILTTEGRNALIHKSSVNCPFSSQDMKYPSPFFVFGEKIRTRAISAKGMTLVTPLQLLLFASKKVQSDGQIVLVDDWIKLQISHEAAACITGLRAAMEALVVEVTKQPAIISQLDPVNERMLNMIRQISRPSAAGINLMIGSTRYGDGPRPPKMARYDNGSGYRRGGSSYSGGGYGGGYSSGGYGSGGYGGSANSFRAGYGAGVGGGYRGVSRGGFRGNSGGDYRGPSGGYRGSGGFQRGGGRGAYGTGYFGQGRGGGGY

What is called EC50 is the concentration needed to bring the measured effect to its halfway point. As to `Cc1sc(C(=O)Nc2cc(Cl)cc(NS(C)(=O)=O)c2)cc1-c1ncccc1OC(C)c1cc(F)cc(F)c1` (single isomer, unassigned) [Example 632], the EC50 in assay [1] (setting [6]) was 112 nM. Also, the IC50 in assay [2] (Homo sapiens, LS-411N) is 96.8 nM; in assay [3] (setting [7]), over 10000 nM. The “DHX9 Biochemical Max Inhibition (%)” value in assay [4] worked out at 71.5%.
With `Cn1cc(C(=O)Nc2cc(Cl)cc(NS(C)(=O)=O)c2)cc1-c1ncc(F)cc1CCc1cncc(F)c1` [Example 728], the EC50 in assay [1] (circBRIP1, HCT116 cells) was determined as 1350 nM. Moreover, the “DHX9 Biochemical Max Inhibition (%)” value in assay [4] was 62.5%.
As for `Cc1sc(C(=O)Nc2cc(Cl)cc(NS(C)(=O)=O)c2)cc1-c1ncc(N2CCC3(C2)CC3(F)F)cn1` (stereo not drawn) [Example 491], the EC50 in assay [1] (setting [6]) was found to be 20.7 nM. In addition, the IC50 in assay [2] (Homo sapiens, LS-411N) worked out at 59.1 nM; in assay [3] (setting [7]) it was 2160 nM. Also, in assay [4], the “DHX9 Biochemical Max Inhibition (%)” value is reported as 72%.
Consider `CN1CC(Oc2ccc(-c3cc(C(=O)Nc4cc(Cl)cc(NS(C)(=O)=O)c4)cn3C)nc2)C1` [Example 612, N-(3-chloro-5-methanesulfonamidophenyl)-1-methyl-5-{5-[(1-methylazetidin-3-yl)oxy]pyridin-2-yl}pyrrole-3-carboxamide], for which the EC50 in assay [1] (setting [6]) turned out to be 21.2 nM. Further, the IC50 was 281 nM in assay [2] (Homo sapiens, LS-411N); over 10000 nM in assay [3] (setting [7]); 10.1 nM in assay [4]. Further, the “DHX9 Biochemical Max Inhibition (%)” value in assay [4] came to 70%.
As for `CCS(=O)(=O)Nc1cc(Cl)cc(NC(=O)c2cc(-c3ncc(N4CC(F)(F)C4)cc3F)n(C)c2)c1` [Example 517], the EC50 in assay [1] (circBRIP1, HCT116 cells) worked out at 16.8 nM. The results for the IC50 in assay [2] and in assay [3] (NCI-H747) were 135 nM and 2220 nM, respectively. Also, the “DHX9 Biochemical Max Inhibition (%)” value in assay [4] came to 54.1%.
`Cc1sc(C(=O)Nc2cc(Cl)cc(NS(C)(=O)=O)c2)cc1-c1ncccc1-c1cncc(F)c1` [Example 229]: the IC50 in assay [2] (Homo sapiens, LS-411N, CRC-MSI-H) was 51 nM; in assay [3] (Homo sapiens, NCI-H747, NCI-H747, CRC-MSS), over 10000 nM; in assay [4] (inflection point of dose-response curve), 9.6 nM. In addition, in assay [4], the “DHX9 Biochemical Max Inhibition” value was 72.5%. Further, the EC50 in assay [5] is 78.1 nM.
